ChEMBL document CHEMBL5543162, “Discovery of a Novel Orally Bioavailable FLT3-PROTAC Degrader for Efficient Treatment of Acute Myeloid Leukemia and Overcoming Resistance of FLT3 Inhibitors” (J Med Chem, 2024)

How the values were obtained:
Format in all cases: functional, cell-based
[1] = tested on: MV4-11; assay: Antiproliferative activity against human MV4-11 cells expressing FLT3-ITD mutant incubated for 48 hrs by CCK8 assay; conditions: MV4-11, 48 h
[2] = tested on: MOLM-13; assay: Antiproliferative activity against human MOLM-13 cells incubated for 48 hrs by CCK8 assay; conditions: MOLM-13, 48 h
[3] = tested on: MOLM-13; assay: Antiproliferative activity against Sunitinib-resistant human MOLM-13 cells incubated for 48 hrs by CCK8 assay; conditions: MOLM-13, 48 h
[4] = tested on: MOLM-13; assay: Antiproliferative activity against Quizartinib-resistant human MOLM-13 cells incubated for 48 hrs by CCK8 assay; conditions: MOLM-13, 48 h

SMILES: Cc1c(NC(=O)CN2CCN(C(=O)CCCCC(=O)NCCNc3cccc4c3C(=O)N(C3CCC(=O)NC3=O)C4=O)CC2)c[nH]c1/C=C1\C(=O)Nc2ccc(F)cc21 (configuration not stated)
- IC50 [1]: 201 nM
- IC50 [2]: 657 nM

SMILES: Cc1c(NC(=O)CN2CCN(C(=O)CCCCCCCNc3cccc4c3C(=O)N(C3CCC(=O)NC3=O)C4=O)CC2)c[nH]c1/C=C1\C(=O)Nc2ccc(F)cc21 (configuration not stated)
- IC50 [1]: 91.4 nM
- IC50 [2]: 220 nM

SMILES: Cc1ncsc1-c1ccc(CNC(=O)[C@H]2C[C@H](O)CN2C(=O)[C@@H](NC(=O)CCCCCCCCC(=O)N2CCN(CC(=O)Nc3c[nH]c(/C=C4\C(=O)Nc5ccc(F)cc54)c3C)CC2)C(C)(C)C)cc1
- IC50 [1]: 410 nM
- IC50 [2]: > 1000 nM

SMILES: Cc1c(NC(=O)CN2CCN(C(=O)CCCCCNc3cccc4c3C(=O)N(C3CCC(=O)NC3=O)C4=O)CC2)c[nH]c1/C=C1\C(=O)Nc2ccc(F)cc21 (configuration not stated)
- IC50 [1]: 169 nM
- IC50 [2]: 208 nM

SMILES: Cc1c(NC(=O)CN2CCN(C(=O)CCOCCOCCNC(=O)COc3cccc4c3C(=O)N(C3CCC(=O)NC3=O)C4=O)CC2)c[nH]c1/C=C1\C(=O)Nc2ccc(F)cc21 (configuration not stated)
- IC50 [1]: 388 nM
- IC50 [2]: > 1000 nM

SMILES: Cc1c(NC(=O)CN2CCN(C3CC4(CCN(c5ccc6c(c5)C(=O)N(C5CCC(=O)NC5=O)C6=O)CC4)C3)CC2)c[nH]c1/C=C1\C(=O)Nc2ccc(F)cc21 (configuration not stated)
- IC50 [1]: 51.7 nM
- IC50 [2]: 249 nM

SMILES: CCN(CC)CCNC(=O)c1c(C)[nH]c(/C=C2\C(=O)Nc3ccc(F)cc32)c1C [SUNITINIB]
- IC50 [3]: 1460 nM
- IC50 [4]: > 1000 nM

SMILES: Cc1c(NC(=O)CN2CCN(C(=O)CCOCCOCCOCCNc3cccc4c3C(=O)N(C3CCC(=O)NC3=O)C4=O)CC2)c[nH]c1/C=C1\C(=O)Nc2ccc(F)cc21 (configuration not stated)
- IC50 [1]: 396 nM
- IC50 [2]: 445 nM

SMILES: Cc1c(NC(=O)CN2CCN(CC3CCN(c4cccc5c4C(=O)N(C4CCC(=O)NC4=O)C5=O)CC3)CC2)c[nH]c1/C=C1\C(=O)Nc2ccc(F)cc21 (configuration not stated)
- IC50 [1]: 194 nM
- IC50 [2]: 336 nM

SMILES: Cc1c(NC(=O)CN2CCN(C(=O)CCCCCCNc3cccc4c3C(=O)N(C3CCC(=O)NC3=O)C4=O)CC2)c[nH]c1/C=C1\C(=O)Nc2ccc(F)cc21 (configuration not stated)
- IC50 [1]: 141 nM
- IC50 [2]: 206 nM

SMILES: Cc1c(NC(=O)CN2CCN(C(=O)CCOCCNc3cccc4c3C(=O)N(C3CCC(=O)NC3=O)C4=O)CC2)c[nH]c1/C=C1\C(=O)Nc2ccc(F)cc21 (configuration not stated)
- IC50 [1]: 326 nM
- IC50 [2]: 542 nM

SMILES: Cc1c(NC(=O)CN2CCN(C(=O)CCCCCCCCCCCNc3cccc4c3C(=O)N(C3CCC(=O)NC3=O)C4=O)CC2)c[nH]c1/C=C1\C(=O)Nc2ccc(F)cc21 (configuration not stated)
- IC50 [1]: 372 nM
- IC50 [2]: > 1000 nM

SMILES: Cc1ncsc1-c1ccc(CNC(=O)[C@@H]2C[C@@H](O)CN2C(=O)[C@H](NC(=O)CCCCCCCC(=O)N2CCN(CC(=O)Nc3c[nH]c(/C=C4\C(=O)Nc5ccc(F)cc54)c3C)CC2)C(C)(C)C)cc1
- IC50 [1]: 191 nM
- IC50 [2]: > 1000 nM

SMILES: Cc1c(NC(=O)CN2CCN(C(=O)CCOCCOCCNc3cccc4c3C(=O)N(C3CCC(=O)NC3=O)C4=O)CC2)c[nH]c1/C=C1\C(=O)Nc2ccc(F)cc21 (configuration not stated)
- IC50 [1]: 201 nM
- IC50 [2]: 686 nM

SMILES: Cc1c(NC(=O)CN2CCN(C(=O)CCCCCCCC(=O)NCCNc3cccc4c3C(=O)N(C3CCC(=O)NC3=O)C4=O)CC2)c[nH]c1/C=C1\C(=O)Nc2ccc(F)cc21 (configuration not stated)
- IC50 [1]: 170 nM
- IC50 [2]: 358 nM

SMILES: Cc1c(NC(=O)CN2CCN(CC3CN(c4ccc5c(c4)C(=O)N(C4CCC(=O)NC4=O)C5=O)C3)CC2)c[nH]c1/C=C1\C(=O)Nc2ccc(F)cc21 (configuration not stated)
- IC50 [1]: 126 nM
- IC50 [2]: 333 nM
